Patent US20220317138A1, “METHODS FOR DETERMINING THE CONCENTRATION OF A CARBAPENEM ANTIBIOTIC IN A BIOLOGICAL SAMPLE” (priority 2019, published 2022)
Like-named read-outs stand apart in the source and are kept apart here.

Assays:
Assay type in all cases: biochemical
[1] = target: P99 beta-lactamase (class C) (Enterobacter cloacae, UniProt P05364); details: nitrocefin reporter
[2] = target: T1, beta-lactamase class D OXA-48 (Klebsiella pneumoniae, UniProt Q6XEC0); details: for Accuracy <> (average) / [Meropenem] <> (average): average of 5 replicates
T1 sequence (Q6XEC0 23-265 limits assumed): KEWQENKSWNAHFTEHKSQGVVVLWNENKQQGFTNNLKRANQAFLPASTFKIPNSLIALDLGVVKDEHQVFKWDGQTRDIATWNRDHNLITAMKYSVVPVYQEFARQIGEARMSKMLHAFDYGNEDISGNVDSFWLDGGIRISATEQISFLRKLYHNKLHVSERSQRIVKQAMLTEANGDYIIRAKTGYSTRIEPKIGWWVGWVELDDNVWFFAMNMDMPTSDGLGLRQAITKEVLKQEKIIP
Excerpt: The specificity (or selectivity) of the method according to an embodiment of the invention is defined as the ability of the method to measure the concentration of a carbapenem antibiotic (such as meropenem) in presence of an excess of another beta-lactam antibiotic (second beta-lactam) currently used in ICUs (see Table 4).
To determine the specificity of the method illustrating the invention for carbapenem antibiotics, in particular meropenem, versus other beta-lactam antibiotics, stock-solutions of second beta-lactam antibiotics were prepared in water.
An excess of a second beta-lactam concentration of up to 10 times the concentration of meropenem was used.

[3] = target: T1, beta-lactamase class D OXA-48; details: calibration curves FIG. 2, FIG. 3
[4] = tested on: Per2 beta-lactamase (class A); test: Screening of beta-lactamases by competition, nitrocefin as reporter substrate
[5] = tested on: AmpCHD beta-lactamase (class C); test: as above
[6] = Meropenem 1.2 mg/L, second β-lactam 10.0 mg/L (8.4 times excess)
[7] = Meropenem 20.0 mg/L, second β-lactam 200.0 mg/L (10 times excess)

Chain of P99 beta-lactamase (class C) (P05364 21-381): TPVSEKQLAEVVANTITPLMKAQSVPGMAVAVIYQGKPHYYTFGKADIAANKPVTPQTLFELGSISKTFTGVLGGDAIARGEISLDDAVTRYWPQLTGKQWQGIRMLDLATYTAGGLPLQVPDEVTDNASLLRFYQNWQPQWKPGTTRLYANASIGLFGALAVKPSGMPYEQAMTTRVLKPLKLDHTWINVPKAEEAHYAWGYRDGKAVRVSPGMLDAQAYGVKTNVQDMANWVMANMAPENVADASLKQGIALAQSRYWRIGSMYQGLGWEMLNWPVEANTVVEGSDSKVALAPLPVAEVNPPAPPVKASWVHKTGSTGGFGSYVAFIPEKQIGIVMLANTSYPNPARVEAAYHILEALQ

| Structure (SMILES) | hydrolysis rate symbol, (Vmax/V0)-1 [1] | Accuracy <> (average) [2, 6] | [Meropenem] <> (average) [2, 6] | Accuracy Replicate 1 [2, 6] | [Meropenem] Replicate 1 [2, 6] | Accuracy Replicate 2 [2, 6] | [Meropenem] Replicate 2 [2, 6] | Accuracy Replicate 3 [2, 6] | [Meropenem] Replicate 3 [2, 6] | Accuracy Replicate 4 [2, 6] | [Meropenem] Replicate 4 [2, 6] | Accuracy Replicate 5 [2, 6] | [Meropenem] Replicate 5 [2, 6] | Accuracy <> (average) [2, 7] | [Meropenem] <> (average) [2, 7] | Accuracy Replicate 1 [2, 7] | [Meropenem] Replicate 1 [2, 7] | Accuracy Replicate 2 [2, 7] | [Meropenem] Replicate 2 [2, 7] | Accuracy Replicate 3 [2, 7] | further results |
| --- | --- | --- | --- | --- | --- | --- | --- | --- | --- | --- | --- | --- | --- | --- | --- | --- | --- | --- | --- | --- | --- |
| CC(C)(O/N=C(\C(=O)N[C@@H]1C(=O)N2C(C(=O)[O-])=C(C[n+]3ccccc3)CS[C@H]12)c1csc(N)n1)C(=O)O [Ceftazidime] | + (0.1-1) | 111% | 1.3 mg/L | 108% | 1.3 mg/L | 105% | 1.2 mg/L | 108% | 1.3 mg/L | 112% | 1.3 mg/L | 118% | 1.4 mg/L | 100% | 20.1 mg/L | 102% | 20.6 mg/L | 97% | 19.6 mg/L | 100% | [Meropenem] Replicate 3 [2, 7]: 20.1 mg/L; Accuracy Replicate 4 [2, 7]: 100%; [Meropenem] Replicate 4 [2, 7]: 20.2 mg/L; Accuracy Replicate 5 [2, 7]: 99%; [Meropenem] Replicate 5 [2, 7]: 20.0 mg/L |
| C[C@@H](O)[C@H]1C(=O)N2C(C(=O)O)=C(S[C@@H]3CN[C@H](CNS(N)(=O)=O)C3)[C@H](C)[C@H]12 [doripenem] | – | – | – | – | – | – | – | – | – | – | – | – | – | – | – | – | – | – | – | – | determining the concentration using OXA-48 [3]: possible |
| CO/N=C(\C(=O)N[C@@H]1C(=O)N2C(C(=O)O)=C(CSc3nc(=O)c(O)nn3C)CS[C@H]12)c1csc(N)n1 [Ceftria ®] | +++ (10-100) | 112% | 1.3 mg/L | 105% | 1.2 mg/L | 111% | 1.3 mg/L | 112% | 1.3 mg/L | 116% | 1.3 mg/L | 113% | 1.3 mg/L | 95% | 21.1 mg/L | 100% | 22.3 mg/L | 96% | 21.4 mg/L | 96% | [Meropenem] Replicate 3 [2, 7]: 21.4 mg/L; Accuracy Replicate 4 [2, 7]: 90%; [Meropenem] Replicate 4 [2, 7]: 20.0 mg/L; Accuracy Replicate 5 [2, 7]: 91%; [Meropenem] Replicate 5 [2, 7]: 20.4 mg/L |
| C[C@@H](O)[C@H]1C(=O)N2C(C(=O)O)=C(S[C@@H]3CN[C@H](C(=O)Nc4cccc(C(=O)O)c4)C3)[C@H](C)[C@H]12 [ertapenem] | – | – | – | – | – | – | – | – | – | – | – | – | – | – | – | – | – | – | – | – | determining the concentration using OXA-48 [3]: possible |
| Cc1onc(-c2ccccc2)c1C(=O)N[C@@H]1C(=O)N2[C@@H]1SC(C)(C)[C@@H]2C(=O)O [Penstapho ®] | ++++ (>100) | 119% | 1.4 mg/L | 115% | 1.3 mg/L | 123% | 1.4 mg/L | 121% | 1.4 mg/L | 122% | 1.4 mg/L | 116% | 1.3 mg/L | 103% | 22.9 mg/L | 98% | 21.8 mg/L | 104% | 23.2 mg/L | 104% | hydrolysis rate symbol, (Vmax/V0)-1 [4]: ++ (1-10); hydrolysis rate symbol, (Vmax/V0)-1 [5]: ++ (1-10); [Meropenem] Replicate 3 [2, 7]: 23.1 mg/L; Accuracy Replicate 4 [2, 7]: 107%; [Meropenem] Replicate 4 [2, 7]: 23.8 mg/L; Accuracy Replicate 5 [2, 7]: 102%; [Meropenem] Replicate 5 [2, 7]: 22.7 mg/L |
